These results are taken from patent US20160158317A1, “Antimicrobial Peptide Variants and Polynucleotides Encoding Same” (Adenium Biotech A/S, priority 2010, published 2016).

Structures are written as SMILES. Where a SMILES comes first, the peptide text is derived from it. Bridges are numbered along the chain shown (N, C = ends).

A short description of this data set: Determination of the protein binding (90% serum, 30 kDa filter, HPLC). In kind it is in vitro ADME. Particulars: serum. The method, then: Protein binding assays were performed as follows. The purified peptides were mixed with 90% serum and centrifuged through a 30 kDa filter. The ultra-filtrate and the non filtrated serum samples were quantified by HPLC measurements and the protein binding was subsequently calculated.
The compound `CC(C)[C@@H]1NC(=O)CNC(=O)[C@H](CC(N)=O)NC(=O)[C@H](CCCNC(=N)N)NC(=O)[C@H](Cc2ccc(O)cc2)NC(=O)[C@H](C(C)C)NC(=O)[C@@H]2CSSC[C@H](NC(=O)[C@H](Cc3c[nH]c4ccccc34)NC(=O)[C@H](CCCNC(=N)N)NC1=O)C(=O)N[C@@H](Cc1c[nH]cn1)C(=O)N[C@@H](CCCNC(=N)N)C(=O)N[C@@H](CCCNC(=N)N)C(=O)N[C@H](C(=O)N[C@@H](CC(N)=O)C(=O)O)CSSC[C@H](NC(=O)[C@H](Cc1ccccc1)NC(=O)CN)C(=O)N[C@@H](Cc1c[nH]c3ccccc13)C(=O)N[C@@H](CC(N)=O)C(=O)N[C@@H](C(C)C)C(=O)N2` [compound 253] (H-GFCWNVCVYRNGVRWCHRRCN-OH; disulfide 3-20, 7-16 (inferred); N-terminus and C-terminus assumed) had a fraction unbound of 0.06.

Compound `CC(C)C[C@@H]1NC(=O)CNC(=O)[C@H](CC(N)=O)NC(=O)[C@H](CCCNC(=N)N)NC(=O)[C@H](CCCCN)NC(=O)[C@H](C(C)C)NC(=O)[C@@H]2CSSC[C@H](NC(=O)[C@H](C(C)C)NC(=O)[C@H](CCCNC(=N)N)NC1=O)C(=O)N[C@@H](Cc1ccc(O)cc1)C(=O)N[C@@H](CCCNC(=N)N)C(=O)N[C@@H](CCCNC(=N)N)C(=O)N[C@H](C(=O)N[C@@H](CC(N)=O)C(=O)O)CSSC[C@H](NC(=O)[C@H](Cc1ccccc1)NC(=O)CN)C(=O)N[C@@H](Cc1c[nH]c3ccccc13)C(=O)N[C@@H](Cc1ccc(O)cc1)C(=O)N[C@@H]([C@@H](C)O)C(=O)N2` [compound 346] (H-GFCWYTCVKRNGLRVCYRRCN-OH; disulfide 3-20, 7-16 (inferred); N-terminus and C-terminus assumed) showed a fraction unbound of 0.14.

In the case of `CC(C)[C@@H]1NC(=O)[C@H](Cc2c[nH]cn2)NC(=O)[C@H](Cc2c[nH]c3ccccc23)NC(=O)[C@@H](NC(=O)[C@H](Cc2ccccc2)NC(=O)CN)CSSC[C@@H](C(=O)N[C@@H](CC(N)=O)C(=O)O)NC(=O)[C@H](CCCNC(=N)N)NC(=O)[C@H](CCCNC(=N)N)NC(=O)[C@H](Cc2ccc(O)cc2)NC(=O)[C@@H]2CSSC[C@H](NC1=O)C(=O)N[C@@H](Cc1c[nH]cn1)C(=O)N[C@@H](Cc1ccc(O)cc1)C(=O)N[C@@H](CCCNC(=N)N)C(=O)N[C@@H](CC(N)=O)C(=O)N[C@@H](CO)C(=O)N[C@@H](C(C)C)C(=O)N[C@@H](CCCNC(=N)N)C(=O)N[C@@H](C(C)C)C(=O)N2` [compound 219] (H-GFCWHVCHYRNSVRVCYRRCN-OH; disulfide 3-20, 7-16 (inferred); N-terminus and C-terminus assumed), the fraction unbound was 0.01.

`CC(C)[C@@H]1NC(=O)CNC(=O)[C@H](CC(N)=O)NC(=O)[C@H](CCCNC(=N)N)NC(=O)[C@H](Cc2ccc(O)cc2)NC(=O)[C@H](C(C)C)NC(=O)[C@@H]2CSSC[C@H](NC(=O)[C@H](C(C)C)NC(=O)[C@H](CCCNC(=N)N)NC1=O)C(=O)N[C@@H](Cc1ccc(O)cc1)C(=O)N[C@@H](CCCNC(=N)N)C(=O)N[C@@H](CCCNC(=N)N)C(=O)N[C@H](C(=O)N[C@@H](CC(N)=O)C(=O)O)CSSC[C@H](NC(=O)[C@H](Cc1ccccc1)NC(=O)CN)C(=O)N[C@@H](C)C(=O)N[C@@H](Cc1ccc(O)cc1)C(=O)N[C@@H](C(C)C)C(=O)N2` [compound 4] (H-GFCAYVCVYRNGVRVCYRRCN-OH; disulfide 3-20, 7-16 (inferred); N-terminus and C-terminus assumed) had a fraction unbound of 0.11.

As to `CC(C)[C@@H]1NC(=O)CNC(=O)[C@H](CC(N)=O)NC(=O)[C@H](CCCNC(=N)N)NC(=O)[C@H](Cc2ccc(O)cc2)NC(=O)[C@H](C(C)C)NC(=O)[C@@H]2CSSC[C@H](NC(=O)[C@H](C(C)C)NC(=O)[C@H](CCCNC(=N)N)NC1=O)C(=O)N[C@@H](CO)C(=O)N[C@@H](CCCNC(=N)N)C(=O)N[C@@H](CCCNC(=N)N)C(=O)N[C@H](C(=O)N[C@@H](CC(N)=O)C(=O)O)CSSC[C@H](NC(=O)[C@H](Cc1ccccc1)NC(=O)CN)C(=O)N[C@@H](Cc1c[nH]c3ccccc13)C(=O)N[C@@H](CCCCN)C(=O)N[C@@H](C(C)C)C(=O)N2` [compound 68] (H-GFCWKVCVYRNGVRVCSRRCN-OH; disulfide 3-20, 7-16 (inferred); N-terminus and C-terminus assumed), the free fraction (fraction unbound) was 0.13.

`CC(C)[C@@H]1NC(=O)[C@H](CCCCN)NC(=O)[C@H](Cc2c[nH]c3ccccc23)NC(=O)[C@@H](NC(=O)[C@H](Cc2ccccc2)NC(=O)CN)CSSC[C@@H](C(=O)N[C@@H](CC(N)=O)C(=O)O)NC(=O)[C@H](CCCNC(=N)N)NC(=O)[C@H](CCCNC(=N)N)NC(=O)[C@H](Cc2ccc(O)cc2)NC(=O)[C@@H]2CSSC[C@H](NC1=O)C(=O)N[C@@H](C)C(=O)N[C@@H](CCCNC(=N)N)C(=O)N[C@@H](CCCNC(=N)N)C(=O)N[C@@H](CC(N)=O)C(=O)NCC(=O)N[C@@H](C)C(=O)N[C@@H](CCCNC(=N)N)C(=O)N[C@@H](CO)C(=O)N2` [compound 504] (H-GFCWKVCARRNGARSCYRRCN-OH; disulfide 3-20, 7-16 (inferred); N-terminus and C-terminus assumed) had a fraction unbound of 0.05.

In the case of `CC(C)[C@@H]1NC(=O)CNC(=O)[C@H](CC(N)=O)NC(=O)[C@H](CCCNC(=N)N)NC(=O)[C@H](Cc2ccc(O)cc2)NC(=O)[C@H](C(C)C)NC(=O)[C@@H]2CSSC[C@H](NC(=O)[C@H]([C@@H](C)O)NC(=O)[C@H](CCCNC(=N)N)NC1=O)C(=O)N[C@@H](Cc1ccc(O)cc1)C(=O)N[C@@H](CCCNC(=N)N)C(=O)N[C@@H](CCCNC(=N)N)C(=O)N[C@H](C(=O)N[C@@H](CC(N)=O)C(=O)O)CSSC[C@H](NC(=O)[C@H](Cc1ccccc1)NC(=O)CN)C(=O)NCC(=O)N[C@@H](CCCNC(=N)N)C(=O)N[C@@H](C(C)C)C(=O)N2` [compound 171] (H-GFCGRVCVYRNGVRTCYRRCN-OH; disulfide 3-20, 7-16), the fraction unbound is 0.16.

Turning to `CC(C)[C@@H]1NC(=O)CNC(=O)[C@H](CC(N)=O)NC(=O)[C@H](CCCNC(=N)N)NC(=O)[C@H](Cc2ccc(O)cc2)NC(=O)[C@H](C(C)C)NC(=O)[C@@H]2CSSC[C@H](NC(=O)[C@H](C(C)C)NC(=O)[C@H](CCCNC(=N)N)NC1=O)C(=O)N[C@@H](Cc1ccc(O)cc1)C(=O)N[C@@H](CCCNC(=N)N)C(=O)N[C@@H](CCCNC(=N)N)C(=O)N[C@H](C(=O)N[C@@H](CC(N)=O)C(=O)O)CSSC[C@H](NC(=O)[C@H](Cc1ccccc1)NC(=O)CN)C(=O)N[C@@H](Cc1c[nH]c3ccccc13)C(=O)N[C@@H](Cc1ccc(O)cc1)C(=O)N[C@@H](Cc1c[nH]c3ccccc13)C(=O)N2` [compound 20] (H-GFCWYWCVYRNGVRVCYRRCN-OH; disulfide 3-20, 7-16 (inferred); N-terminus and C-terminus assumed), the fraction unbound was found to be 0.01.

For `CC(C)[C@@H]1NC(=O)CNC(=O)[C@H](CC(N)=O)NC(=O)[C@H](CCCNC(=N)N)NC(=O)[C@H](Cc2ccc(O)cc2)NC(=O)[C@H](C(C)C)NC(=O)[C@@H]2CSSC[C@H](NC(=O)[C@H](C(C)C)NC(=O)[C@H](CCCNC(=N)N)NC1=O)C(=O)N[C@@H](Cc1c[nH]cn1)C(=O)N[C@@H](CCCNC(=N)N)C(=O)N[C@@H](CCCNC(=N)N)C(=O)N[C@H](C(=O)N[C@@H](CC(N)=O)C(=O)O)CSSC[C@H](NC(=O)[C@H](Cc1ccccc1)NC(=O)CN)C(=O)N[C@@H](Cc1c[nH]c3ccccc13)C(=O)N[C@@H](CC(N)=O)C(=O)N[C@@H](Cc1ccccc1)C(=O)N2` [compound 260] (H-GFCWNFCVYRNGVRVCHRRCN-OH; disulfide 3-20, 7-16 (inferred); N-terminus and C-terminus assumed), the fraction unbound was 0.16.

In the case of `CC(C)[C@@H]1NC(=O)CNC(=O)[C@H](CC(N)=O)NC(=O)[C@H](CCCNC(=N)N)NC(=O)[C@H](Cc2ccc(O)cc2)NC(=O)[C@H](C(C)C)NC(=O)[C@@H]2CSSC[C@H](NC(=O)[C@H](CCCNC(=N)N)NC(=O)[C@H](CCCNC(=N)N)NC1=O)C(=O)N[C@@H](Cc1ccc(O)cc1)C(=O)N[C@@H](CCCNC(=N)N)C(=O)N[C@@H](CCCNC(=N)N)C(=O)N[C@H](C(=O)N[C@@H](CC(N)=O)C(=O)O)CSSC[C@H](NC(=O)[C@H](Cc1ccccc1)NC(=O)CN)C(=O)N[C@@H](Cc1ccc(O)cc1)C(=O)N[C@@H](CC(N)=O)C(=O)N[C@@H](C(C)C)C(=O)N2` [compound 207] (H-GFCYNVCVYRNGVRRCYRRCN-OH; disulfide 3-20, 7-16 (inferred); N-terminus and C-terminus assumed), the fraction unbound was found to be 0.09.

In turn, `CC(C)[C@@H]1NC(=O)[C@H](CCCNC(=N)N)NC(=O)[C@H](Cc2c[nH]cn2)NC(=O)CNC(=O)[C@H](CC(N)=O)NC(=O)[C@H](CCCNC(=N)N)NC(=O)[C@H](Cc2ccc(O)cc2)NC(=O)[C@H](C(C)C)NC(=O)[C@@H]2CSSC[C@H](NC1=O)C(=O)N[C@@H](Cc1c[nH]cn1)C(=O)N[C@@H](CCCNC(=N)N)C(=O)N[C@@H](CCCNC(=N)N)C(=O)N[C@H](C(=O)N[C@@H](CC(N)=O)C(=O)O)CSSC[C@H](NC(=O)[C@H](Cc1ccccc1)NC(=O)CN)C(=O)N[C@@H](Cc1c[nH]c3ccccc13)C(=O)N[C@@H](CC(N)=O)C(=O)N[C@@H](C(C)C)C(=O)N2` [compound 237] (H-GFCWNVCVYRNGHRVCHRRCN-OH; disulfide 3-20, 7-16 (inferred); N-terminus and C-terminus assumed) gave a fraction unbound of 0.6.

Turning to `CC(C)[C@@H]1NC(=O)[C@@H]2CSSC[C@H](NC(=O)[C@H](C)NC(=O)[C@H](CCCNC(=N)N)NC(=O)[C@H](CCCCN)NC(=O)CNC(=O)[C@H](CC(N)=O)NC(=O)[C@H](CCCNC(=N)N)NC(=O)[C@H](Cc3ccc(O)cc3)NC1=O)C(=O)N[C@@H](Cc1ccc(O)cc1)C(=O)N[C@@H](CCCNC(=N)N)C(=O)N[C@@H](CCCNC(=N)N)C(=O)N[C@H](C(=O)N[C@@H](CC(N)=O)C(=O)O)CSSC[C@H](NC(=O)[C@H](Cc1ccccc1)NC(=O)CN)C(=O)NCC(=O)N[C@@H](CCCNC(=N)N)C(=O)N[C@@H](C(C)C)C(=O)N2` [compound 386] (H-GFCGRVCVYRNGKRACYRRCN-OH; disulfide 3-20, 7-16 (inferred); N-terminus and C-terminus assumed), the fraction unbound was 0.19.

For orientation: fraction unbound means free concentration divided by total concentration.
